Results on 19 compounds are retold here after PubChem BioAssay (NCI).

Some test systems named below: A549 NSCLC; COLO 205 colon; HCC-2998 colon; HCT-15 colon; M14 melanoma; NCI-H460 lung; NCI-H522 lung; NCI/ADR-RES ovarian; SK-MEL-28 melanoma; SK-MEL-5 melanoma.
Holding throughout (assay): NCI anticancer screen, dose series, 48 h

“And” between values parts separate entries of the source, which are not always exact repeats. Equal values may be shown once.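 How tested: cells in 96-well plates exposed to compound for 48 hours at five concentrations. At the GI50, growth is halved. TGI: total growth inhibition.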 *1 amine or outer side, *2 acyl side, *3 side chain or, on linkers, in order; H or OH if unused. Where a SMILES comes first, the peptide text is derived from it. [ ]: non-standard residue; d: D form. X32 = C[C@H](N[*:1])C(=O)C(C)(C)C(=O)[*:2]; Hmpa(2S,3S) = CC[C@H](C)[C@H](O)C(=O)O; NMeY = CN[C@@H](Cc1ccc(O)cc1)C(=O)O; NMeL = CN[C@@H](CC(C)C)C(=O)O; NMeV = CN[C@H](C(=O)O)C(C)C; βAla = NCCC(=O)O Bounds are passed on as bounds.

Regarding `O=[N+]([O-])c1ccc(N/N=C/c2ccc(OCCCCCCCCCCCO)cc2)c([N+](=O)[O-])c1`, the TGI is above 38.9 µM in the experiment with A549 NSCLC; 6.24 µM in the experiment with COLO 205 colon; 76.6 µM in the experiment with HCC-2998 colon; above 100 µM in the experiment on HCT-15 colon; 3.22 µM with M14 melanoma; 12.1 µM in the experiment with NCI-H460 lung. Further, the TGI is 9.44 µM in the experiment with NCI-H522 lung, 9.51 µM in the experiment on NCI/ADR-RES ovarian, 32.5 µM in the experiment on SK-MEL-28 melanoma and 4.66 µM with SK-MEL-5 melanoma.
As for `CC[C@H](C)[C@@H]1OC(=O)CCNC(=O)[C@@H](C)NC(=O)C(C)(C)C(=O)[C@H](C)NC(=O)[C@H](Cc2ccc(OC)cc2)N(C)C(=O)[C@H](C(C)C)N(C)C(=O)CNC(=O)[C@H](CC(C)C)N(C)C(=O)CNC1=O` (cyclo(G[NMeL]G[NMeV][NMeY](Me)[X32][dA][βAla][Hmpa(2S,3S)])), the TGI in the experiment on A549 NSCLC is above 50 µM; in the experiment with COLO 205 colon, 0.0545 µM; in the experiment with HCC-2998 colon, above 25.1 µM; with HCT-15 colon, above 50 µM; in the experiment on M14 melanoma it was 10.2 µM; with NCI-H460 lung, above 50 µM. The TGI with NCI-H522 lung is above 50 µM; in the experiment on NCI/ADR-RES ovarian it was above 50 µM; in the experiment with SK-MEL-28 melanoma it was above 36.3 µM; in the experiment with SK-MEL-5 melanoma, 0.228 µM.
`N[C@H]1CCCC[C@@H]1N1C(=O)c2ccccc2C1(O)c1ccc(Cl)cc1` (stereo partly specified): the TGI is 25.2 µM with A549 NSCLC; 12.6 µM in the experiment with COLO 205 colon; 3.5 µM in the experiment on HCC-2998 colon; 26.7 µM in the experiment on HCT-15 colon; 23.6 µM in the experiment on M14 melanoma; 25.2 µM in the experiment with NCI-H460 lung. Moreover, the TGI with NCI-H522 lung turned out to be 27.8 µM; with NCI/ADR-RES ovarian, 30.8 µM; in the experiment on SK-MEL-28 melanoma, 10.4 µM; in the experiment with SK-MEL-5 melanoma, 22.5 µM.
For the compound `COC(=O)C1OC(O[C@H]2CC[C@]3(C)[C@H]4CC=C5[C@@H]6CC(C)(C)CC[C@]6(C(=O)OC6OCC(O)C(O)C6OC6OC(C)C(OC7OCC(O)C(O)C7O)C(O)C6O)CC[C@@]5(C)[C@]4(C)CC[C@H]3C2(C)C)C(O)C(O)C1O` (stereo partly specified), the TGI was 33 µM and 41 µM with A549 NSCLC; 25.8 µM and 30.6 µM in the experiment on COLO 205 colon; 25.4 µM and 29.5 µM in the experiment with HCC-2998 colon; above 100 µM in the experiment with HCT-15 colon; 28.6 µM and 32.5 µM in the experiment on M14 melanoma; > 100 µM and 43.8 µM with NCI-H460 lung. The TGI in the experiment with NCI-H522 lung was 30.9 µM and 30.5 µM; in the experiment with NCI/ADR-RES ovarian, above 100 µM; in the experiment on SK-MEL-28 melanoma, 27.8 µM and 30.5 µM; in the experiment with SK-MEL-5 melanoma, 31.8 µM and 32.5 µM. Also, the GI50 in the experiment on NCI/ADR-RES ovarian is 24 µM and > 100 µM.
As to `COC(=O)c1ccccc1C1CN=NC12Cc1cc(C)ccc1C2=O` (stereo unspecified), the TGI in the experiment on A549 NSCLC, in the experiment with COLO 205 colon, in the experiment on HCC-2998 colon, in the experiment with HCT-15 colon, with M14 melanoma and with NCI-H460 lung was above 100 µM each time. For the same compound, the TGI with NCI-H522 lung, in the experiment with NCI/ADR-RES ovarian, in the experiment on SK-MEL-28 melanoma and with SK-MEL-5 melanoma was above 100 µM in each case.
`COc1cc(CNNC(N)=S)cc(OC)c1OC`: the TGI in the experiment with A549 NSCLC, in the experiment on COLO 205 colon, in the experiment with HCC-2998 colon, in the experiment on HCT-15 colon, in the experiment with M14 melanoma and in the experiment on NCI-H460 lung was above 100 µM in each case. In addition, the TGI in the experiment on NCI-H522 lung, with NCI/ADR-RES ovarian, in the experiment with SK-MEL-28 melanoma and in the experiment with SK-MEL-5 melanoma was above 100 µM each time.
With `CCOC(=O)c1c(N2CCOCC2)[nH]c(=O)c(C(c2ccco2)c2c(O)c(C(=O)OCC)c(N3CCOCC3)[nH]c2=O)c1O`, the TGI with A549 NSCLC, with COLO 205 colon, in the experiment on HCC-2998 colon, with HCT-15 colon, in the experiment with M14 melanoma and in the experiment on NCI-H460 lung was above 100 µM each time. Besides, the TGI in the experiment on NCI-H522 lung, with NCI/ADR-RES ovarian, in the experiment on SK-MEL-28 melanoma and in the experiment on SK-MEL-5 melanoma was above 100 µM each time.
For the compound `C(=C\c1ccco1)/c1cccc(/C=C/c2ccco2)n1`, the TGI with A549 NSCLC, with COLO 205 colon, in the experiment with HCC-2998 colon, with HCT-15 colon, with M14 melanoma and in the experiment on NCI-H460 lung was above 50 µM in each case. The TGI with NCI-H522 lung, with NCI/ADR-RES ovarian, with SK-MEL-28 melanoma and in the experiment with SK-MEL-5 melanoma was above 50 µM in each case.
`C=CC(Cl)(CBr)CCC(Br)C(C)(C)Cl` (stereo unspecified): the TGI in the experiment on A549 NSCLC stood at 89.3 µM; in the experiment on COLO 205 colon, 29.5 µM; with HCC-2998 colon, 28.8 µM; in the experiment on HCT-15 colon, 36.7 µM; with M14 melanoma it was 29 µM; with NCI-H460 lung it was 28 µM. For the same compound, the TGI with NCI-H522 lung was 24.4 µM; in the experiment with NCI/ADR-RES ovarian it was 49.8 µM; with SK-MEL-28 melanoma, 33.1 µM; in the experiment with SK-MEL-5 melanoma it was 25.8 µM.
Take `O=C1C(Cl)=C(Nc2ccc(S(=O)(=O)Nc3ccccn3)cc2)C(=O)c2ccccc21`: the TGI was 41.9 µM in the experiment on A549 NSCLC; 27.8 µM in the experiment on COLO 205 colon; 24.8 µM in the experiment with HCC-2998 colon; 23.2 µM in the experiment on HCT-15 colon; 15.4 µM with M14 melanoma; 19.2 µM in the experiment on NCI-H460 lung. The TGI in the experiment on NCI-H522 lung was 13.7 µM; in the experiment on NCI/ADR-RES ovarian it was above 40.9 µM; with SK-MEL-28 melanoma, 42.9 µM; with SK-MEL-5 melanoma, 11.4 µM.
As for `COc1ccc(C(=O)/C=C/c2cc(O)c(O)c(F)c2F)c(OC)c1`, the TGI is above 100 µM in the experiment with A549 NSCLC; 53.1 µM with COLO 205 colon; 16.8 µM with HCC-2998 colon; 36.6 µM in the experiment with HCT-15 colon; above 100 µM in the experiment with M14 melanoma; 22.8 µM with NCI-H460 lung. Besides, the TGI in the experiment on NCI-H522 lung was 30.3 µM; with NCI/ADR-RES ovarian, 67.7 µM; in the experiment with SK-MEL-28 melanoma, above 100 µM; in the experiment with SK-MEL-5 melanoma it was 25.3 µM.
For `Nc1onc2c1Cc1c(noc1N)-c1ccccc1-2`, the TGI with A549 NSCLC, with COLO 205 colon, with HCC-2998 colon, in the experiment on HCT-15 colon, in the experiment with M14 melanoma and in the experiment on NCI-H460 lung was above 100 µM throughout. Further, the TGI in the experiment on NCI-H522 lung, in the experiment on NCI/ADR-RES ovarian, in the experiment with SK-MEL-28 melanoma and in the experiment with SK-MEL-5 melanoma was above 100 µM in each case.
With `CC(=O)Nc1c(C)cc2c(nc3n2CCC3O)c1[N+](=O)[O-]` (stereo unspecified), the TGI with A549 NSCLC, in the experiment on COLO 205 colon, with HCC-2998 colon, with HCT-15 colon, in the experiment on M14 melanoma and in the experiment on NCI-H460 lung was above 100 µM each time. Besides, the TGI in the experiment with NCI-H522 lung, in the experiment on NCI/ADR-RES ovarian, in the experiment with SK-MEL-28 melanoma and with SK-MEL-5 melanoma was above 100 µM throughout.
Take `NC(=S)N/N=C\c1nccc2ccccc12`: the TGI is above 100 µM with A549 NSCLC; 2.89 µM in the experiment on COLO 205 colon; above 68.4 µM in the experiment on HCC-2998 colon; above 100 µM with HCT-15 colon; 2.42 µM with M14 melanoma; 25.5 µM in the experiment with NCI-H460 lung. Further, the TGI with NCI-H522 lung is 32.5 µM; in the experiment on NCI/ADR-RES ovarian it was 1.13 µM; in the experiment on SK-MEL-28 melanoma, 0.951 µM; with SK-MEL-5 melanoma it was 3.7 µM.
In the case of `O=C1C(c2c(O)[nH]c3ccc(Br)cc23)=Nc2ccccc21`, the TGI was 17.3 µM with A549 NSCLC; 31.4 µM in the experiment with COLO 205 colon; 13.5 µM with HCC-2998 colon; above 100 µM with HCT-15 colon; 32.4 µM with M14 melanoma; 44.6 µM in the experiment with NCI-H460 lung. In addition, the TGI in the experiment with NCI-H522 lung is 39.7 µM; in the experiment with NCI/ADR-RES ovarian it was above 100 µM; in the experiment with SK-MEL-28 melanoma, above 100 µM; in the experiment on SK-MEL-5 melanoma, 18.6 µM.
Regarding `Cc1cn(CC2=NCC(C)N2)c(=O)[nH]c1=O` (stereo unspecified), the TGI in the experiment on A549 NSCLC, in the experiment on COLO 205 colon, in the experiment with HCC-2998 colon, in the experiment on HCT-15 colon, in the experiment with M14 melanoma and with NCI-H460 lung was above 100 µM throughout. Moreover, the TGI in the experiment with NCI-H522 lung, with NCI/ADR-RES ovarian, in the experiment on SK-MEL-28 melanoma and in the experiment on SK-MEL-5 melanoma was above 100 µM throughout.
For `OCCNCNc1nc(NCNCCO)nc(N(CNCCO)CNCCO)n1`, the TGI with A549 NSCLC was above 78.2 µM; with COLO 205 colon, 30.8 µM; in the experiment with HCC-2998 colon it was 36.4 µM; in the experiment on HCT-15 colon, 61.6 µM; in the experiment with M14 melanoma, 36.6 µM; with NCI-H460 lung, 59.4 µM. In addition, the TGI was 41.3 µM in the experiment with NCI-H522 lung, 54 µM in the experiment with NCI/ADR-RES ovarian, 52.6 µM in the experiment with SK-MEL-28 melanoma and 28.5 µM in the experiment with SK-MEL-5 melanoma.
With `O=C1CSC(c2cccc([N+](=O)[O-])c2)N1c1ccc(-n2c(-c3ccccc3)nc3ccccc3c2=O)cc1` (stereo unspecified), the TGI in the experiment on A549 NSCLC, with COLO 205 colon, with HCC-2998 colon, with HCT-15 colon, with M14 melanoma and in the experiment on NCI-H460 lung was above 100 µM throughout. Further, the TGI with NCI-H522 lung, with NCI/ADR-RES ovarian, in the experiment with SK-MEL-28 melanoma and in the experiment on SK-MEL-5 melanoma was above 100 µM each time.
As to `CC(=O)OCc1ccc2oc(=O)c(C(=O)Oc3ccccc3)cc2c1`, the TGI in the experiment on A549 NSCLC is above 100 µM; in the experiment with COLO 205 colon it was above 100 µM; in the experiment with HCC-2998 colon it was above 100 µM; with HCT-15 colon, 50 µM; with M14 melanoma, above 100 µM; with NCI-H460 lung, above 100 µM. Also, the TGI in the experiment with NCI-H522 lung, with NCI/ADR-RES ovarian, in the experiment with SK-MEL-28 melanoma and in the experiment with SK-MEL-5 melanoma was above 100 µM each time.
